Assay results taken from ChEMBL document CHEMBL1201862, “PubChem BioAssay data set” (2004).
Activity calls are given as the source filed them.

Tests used:
[1] = luciferase reporter signal suppression in cells – H4 neuroglioma cells, luminescence, dose response (AID 1990); type: functional, cell-based
[2] = Luminescence Cell-Based Dose Response HTS to Identify Inhibitors of 5'UTR Stem-Loop Driven Prion Protein mRNA Translation in H4 Neuroglioblastoma Cells. [Related pubchem assays: 1827 (Project Summary), 1813 (Primary HTS)]; type: functional
[3] = alpha-synuclein stem-loop luciferase translation blockers – H4 neuroglioma cells, luminescence, confirmation (AID 1988); type: functional, cell-based
[4] = molecular target: T1, DNA repair protein RAD52 homolog (Homo sapiens, UniProt P43351); type: functional, biochemical
T1 sequence (P43351 whole entry): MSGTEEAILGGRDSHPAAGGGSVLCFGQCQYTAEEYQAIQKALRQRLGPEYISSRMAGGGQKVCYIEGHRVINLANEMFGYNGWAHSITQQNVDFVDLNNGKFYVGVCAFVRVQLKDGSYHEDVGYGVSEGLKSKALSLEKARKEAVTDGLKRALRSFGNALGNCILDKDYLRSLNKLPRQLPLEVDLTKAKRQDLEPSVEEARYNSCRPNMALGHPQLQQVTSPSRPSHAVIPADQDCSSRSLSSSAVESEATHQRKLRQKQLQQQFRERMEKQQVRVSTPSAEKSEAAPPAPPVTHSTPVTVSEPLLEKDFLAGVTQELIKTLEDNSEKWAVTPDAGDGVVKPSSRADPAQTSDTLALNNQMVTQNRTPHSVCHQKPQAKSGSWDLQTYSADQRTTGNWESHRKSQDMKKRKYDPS

[5] = molecular target: Estrogen receptor beta (Homo sapiens, UniProt Q92731);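 note: recombinant ER-beta bound to coactivator SRC1 peptide in presence of estradiol agonist; inhibitors block coactivator peptide binding and lower the FRET signal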
Estrogen receptor beta, sequence (Q92731 whole entry): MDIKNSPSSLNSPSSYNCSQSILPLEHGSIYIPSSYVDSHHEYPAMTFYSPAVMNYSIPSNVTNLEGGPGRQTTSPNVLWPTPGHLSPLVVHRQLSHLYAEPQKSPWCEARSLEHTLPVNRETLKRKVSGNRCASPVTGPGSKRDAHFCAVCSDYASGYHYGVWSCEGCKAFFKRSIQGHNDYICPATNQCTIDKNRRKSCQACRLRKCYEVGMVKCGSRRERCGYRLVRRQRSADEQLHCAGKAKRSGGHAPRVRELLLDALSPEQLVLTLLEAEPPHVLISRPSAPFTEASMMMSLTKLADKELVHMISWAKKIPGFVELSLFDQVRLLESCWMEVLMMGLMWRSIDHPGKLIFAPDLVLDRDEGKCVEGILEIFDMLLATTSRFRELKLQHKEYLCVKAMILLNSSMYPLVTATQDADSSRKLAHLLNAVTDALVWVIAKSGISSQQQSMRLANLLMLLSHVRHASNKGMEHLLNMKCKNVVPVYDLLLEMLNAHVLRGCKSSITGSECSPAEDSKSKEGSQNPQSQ

[6] = growth inhibition of yeast DHODH-expressing 3D7 parasites – SYBR Green, dry powder samples, dose response (AID 1159570); type: functional, cell-based;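 note: parasite growth measured after 72 hours of compound exposure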
[7] = P. falciparum Dd2 growth inhibitors, dose response, SYBR Green, cherry-picked samples (AID 1159567); type: functional, cell-based
[8] = Dd2 malaria parasite growth inhibition potency – SYBR Green, dry powder samples, dose response (AID 1159566); type: functional, cell-based;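 note: potency for growth inhibition with lower SYBR green DNA signal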
[9] = growth inhibition of PfATP4-mutant resistant parasites – NITD609-resistant line, SYBR Green, dry powder, dose response (AID 1159571); type: functional, cell-based;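 note: parasites synchronized at ring stage by sorbitol before testing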
[10] = molecular target: Glyceraldehyde-3-phosphate dehydrogenase (Homo sapiens, UniProt P04406)
Glyceraldehyde-3-phosphate dehydrogenase, sequence (P04406 whole entry): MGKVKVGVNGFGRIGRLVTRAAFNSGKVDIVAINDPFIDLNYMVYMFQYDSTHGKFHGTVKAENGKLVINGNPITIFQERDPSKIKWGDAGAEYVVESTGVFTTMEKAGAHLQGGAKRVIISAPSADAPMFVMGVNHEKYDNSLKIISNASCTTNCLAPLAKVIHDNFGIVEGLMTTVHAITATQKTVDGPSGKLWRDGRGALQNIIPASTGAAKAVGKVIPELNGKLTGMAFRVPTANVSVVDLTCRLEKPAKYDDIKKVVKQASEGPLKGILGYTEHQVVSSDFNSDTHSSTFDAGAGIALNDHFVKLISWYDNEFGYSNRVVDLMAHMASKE

[11] = test system: Vero; assay: viability of Vero cells under compound – cytotoxicity control for flavivirus capping enzyme inhibitors (AID 588742); type: functional; conditions: Chlorocebus sabaeus
[12] = molecular target: Genome polyprotein (dengue virus type 2, UniProt P29990); assay: flavivirus cap methylation enzyme inhibition – biochemical, confirmation dose response, primary screen (AID 588689); type: functional
Genome polyprotein, sequence (P29990 2492-3391 limits assumed): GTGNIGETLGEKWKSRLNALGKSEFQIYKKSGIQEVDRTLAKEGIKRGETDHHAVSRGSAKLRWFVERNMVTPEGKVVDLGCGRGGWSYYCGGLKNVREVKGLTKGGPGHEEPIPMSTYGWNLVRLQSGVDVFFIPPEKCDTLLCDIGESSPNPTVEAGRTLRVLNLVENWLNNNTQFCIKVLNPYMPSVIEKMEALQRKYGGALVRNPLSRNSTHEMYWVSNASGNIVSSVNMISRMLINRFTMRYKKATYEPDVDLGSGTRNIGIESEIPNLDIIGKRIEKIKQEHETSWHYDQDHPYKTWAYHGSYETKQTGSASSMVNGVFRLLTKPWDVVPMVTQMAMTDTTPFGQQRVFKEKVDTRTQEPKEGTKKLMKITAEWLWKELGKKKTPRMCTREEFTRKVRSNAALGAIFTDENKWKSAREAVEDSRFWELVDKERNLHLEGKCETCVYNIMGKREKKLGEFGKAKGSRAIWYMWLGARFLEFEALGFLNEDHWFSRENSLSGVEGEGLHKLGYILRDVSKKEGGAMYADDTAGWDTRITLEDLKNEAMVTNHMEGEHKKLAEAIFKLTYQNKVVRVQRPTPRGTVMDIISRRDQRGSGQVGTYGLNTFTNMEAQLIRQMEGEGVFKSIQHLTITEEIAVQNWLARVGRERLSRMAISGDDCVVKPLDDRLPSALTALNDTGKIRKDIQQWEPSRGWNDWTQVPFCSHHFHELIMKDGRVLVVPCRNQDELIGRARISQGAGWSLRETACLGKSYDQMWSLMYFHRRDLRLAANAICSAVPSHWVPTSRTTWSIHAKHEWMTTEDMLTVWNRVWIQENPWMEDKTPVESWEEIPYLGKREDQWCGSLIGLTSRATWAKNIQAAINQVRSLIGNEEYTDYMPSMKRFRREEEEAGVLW

[13] = test system: Streptococcus sp. 'group A'; assay: Streptococcus pyogenes SK(-)GAS viability under kanamycin – luminescence, BacTiterGlo, confirmation, counter-screen for streptokinase expression inhibitor project, dose response (AID 1900); type: functional, organism-based
[14] = test system: Streptococcus; assay: GAS UMAA2166 growth inhibition – luminescence, BacTiterGlo, counter-screen for streptokinase expression inhibitor project, dose response (AID 1915); type: functional, organism-based;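 note: potency for reduction of bacterial viability or growth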
[15] = molecular target: T2, Short transient receptor potential channel 4 (Mus musculus, UniProt Q9QUQ5); assay: calcium entry via TRPC4 opening agents – cell-based, HEK293 TRPC4/mu-opioid, Fluo-4 calcium, dose response (AID 434937); type: functional
T2 sequence (Q9QUQ5 whole entry): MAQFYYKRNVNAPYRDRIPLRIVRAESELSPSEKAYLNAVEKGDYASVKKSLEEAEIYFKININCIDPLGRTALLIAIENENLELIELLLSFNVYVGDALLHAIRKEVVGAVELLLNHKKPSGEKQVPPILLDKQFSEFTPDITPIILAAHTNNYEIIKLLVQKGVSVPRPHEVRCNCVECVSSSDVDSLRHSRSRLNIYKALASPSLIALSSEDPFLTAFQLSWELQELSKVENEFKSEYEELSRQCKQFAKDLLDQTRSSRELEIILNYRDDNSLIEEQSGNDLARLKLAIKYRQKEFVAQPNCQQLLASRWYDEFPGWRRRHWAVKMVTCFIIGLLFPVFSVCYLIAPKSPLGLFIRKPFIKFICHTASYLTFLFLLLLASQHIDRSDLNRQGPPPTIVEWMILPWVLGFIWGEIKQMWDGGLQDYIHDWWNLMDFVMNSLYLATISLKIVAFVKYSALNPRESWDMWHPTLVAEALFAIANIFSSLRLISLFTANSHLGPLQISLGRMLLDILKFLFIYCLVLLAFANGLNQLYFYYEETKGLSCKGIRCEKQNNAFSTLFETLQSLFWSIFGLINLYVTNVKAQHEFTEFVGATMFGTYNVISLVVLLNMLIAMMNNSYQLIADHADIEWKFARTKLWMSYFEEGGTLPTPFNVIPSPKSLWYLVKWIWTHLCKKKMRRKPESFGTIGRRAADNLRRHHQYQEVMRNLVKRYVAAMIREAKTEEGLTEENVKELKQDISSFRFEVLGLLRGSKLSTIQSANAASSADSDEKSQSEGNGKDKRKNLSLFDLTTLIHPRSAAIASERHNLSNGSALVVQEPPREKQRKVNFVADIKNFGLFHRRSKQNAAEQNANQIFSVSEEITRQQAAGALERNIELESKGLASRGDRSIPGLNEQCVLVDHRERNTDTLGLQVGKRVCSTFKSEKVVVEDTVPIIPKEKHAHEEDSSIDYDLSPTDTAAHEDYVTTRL

[16] = Luminescence Cell-Based Dose Retest to Confirm Inhibitors of Cancer Stem Cells. [Related pubchem assays (depositor defined):AID2717, AID2721]; type: functional; conditions: Homo sapiens
[17] = viability loss in HeLa cells – cytotoxicity control for MgcRacGAP inhibitor project, dose response (AID 624300); type: functional
[18] = molecular target: T3, Rac GTPase-activating protein 1 (Homo sapiens, UniProt Q9H0H5); assay: blockers of MgcRacGAP-driven Rac1 GTP hydrolysis – biochemical, ADP Hunter fluorescence, primary and confirmatory, confirmation (AID 624330); type: functional
T3 sequence (Q9H0H5 whole entry): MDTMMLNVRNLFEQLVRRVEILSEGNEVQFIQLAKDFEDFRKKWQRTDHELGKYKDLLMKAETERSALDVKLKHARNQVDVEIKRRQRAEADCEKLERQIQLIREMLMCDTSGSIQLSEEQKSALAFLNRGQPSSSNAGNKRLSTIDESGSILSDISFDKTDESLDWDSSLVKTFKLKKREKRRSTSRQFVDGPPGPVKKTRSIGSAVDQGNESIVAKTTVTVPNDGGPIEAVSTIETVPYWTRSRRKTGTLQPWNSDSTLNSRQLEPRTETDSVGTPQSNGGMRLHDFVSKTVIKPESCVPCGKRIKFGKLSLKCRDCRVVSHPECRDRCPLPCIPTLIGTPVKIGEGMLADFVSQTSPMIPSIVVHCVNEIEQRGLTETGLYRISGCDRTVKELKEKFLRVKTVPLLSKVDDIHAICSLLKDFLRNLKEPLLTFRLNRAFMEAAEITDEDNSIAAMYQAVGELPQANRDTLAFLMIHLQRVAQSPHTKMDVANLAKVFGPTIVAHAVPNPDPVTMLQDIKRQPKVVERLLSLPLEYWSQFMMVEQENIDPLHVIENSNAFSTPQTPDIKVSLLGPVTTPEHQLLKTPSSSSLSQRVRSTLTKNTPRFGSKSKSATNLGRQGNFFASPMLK

[19] = molecular target: T4, Replicative DNA helicase DnaB (Mycobacterium tuberculosis, UniProt P9WMR3); assay: DnaB intein splicing inhibitors, dose response, biochemical, cell-free fluorescence (AID 449749); type: functional
T4 sequence (P9WMR3 whole entry): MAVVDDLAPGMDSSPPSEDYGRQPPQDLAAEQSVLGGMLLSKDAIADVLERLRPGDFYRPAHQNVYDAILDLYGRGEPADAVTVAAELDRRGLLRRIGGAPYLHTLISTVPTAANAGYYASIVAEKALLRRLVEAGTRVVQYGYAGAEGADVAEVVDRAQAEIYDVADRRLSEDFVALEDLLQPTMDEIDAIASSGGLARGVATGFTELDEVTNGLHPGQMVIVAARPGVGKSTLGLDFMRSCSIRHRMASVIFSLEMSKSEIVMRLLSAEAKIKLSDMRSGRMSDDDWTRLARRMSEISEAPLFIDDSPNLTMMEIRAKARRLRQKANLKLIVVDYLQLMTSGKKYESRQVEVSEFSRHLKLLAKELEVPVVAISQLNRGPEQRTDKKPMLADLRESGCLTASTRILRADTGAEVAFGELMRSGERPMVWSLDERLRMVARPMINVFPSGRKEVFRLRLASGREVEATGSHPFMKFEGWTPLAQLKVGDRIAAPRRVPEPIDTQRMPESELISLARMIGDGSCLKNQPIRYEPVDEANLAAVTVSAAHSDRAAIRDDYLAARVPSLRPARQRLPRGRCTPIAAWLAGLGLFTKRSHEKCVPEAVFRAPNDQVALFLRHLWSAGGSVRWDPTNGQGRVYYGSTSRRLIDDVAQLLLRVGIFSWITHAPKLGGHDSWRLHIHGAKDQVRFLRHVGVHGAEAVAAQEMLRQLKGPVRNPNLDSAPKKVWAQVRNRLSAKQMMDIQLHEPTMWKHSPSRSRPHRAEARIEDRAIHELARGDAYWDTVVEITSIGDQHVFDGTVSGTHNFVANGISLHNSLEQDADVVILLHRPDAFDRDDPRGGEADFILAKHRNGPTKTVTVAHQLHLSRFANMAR

[20] = molecular target: T5, Protein RecA (Mycobacterium tuberculosis, UniProt P9WHJ3); assay: Fluorescence Cell-Free Homogeneous Dose Retest to Identify Inhibitors of RecA-Intein Splicing Activity. [Related pubchem assays (depositor defined):AID2097, AID2223, AID489010, AID492950]; type: functional
T5 sequence (P9WHJ3 whole entry): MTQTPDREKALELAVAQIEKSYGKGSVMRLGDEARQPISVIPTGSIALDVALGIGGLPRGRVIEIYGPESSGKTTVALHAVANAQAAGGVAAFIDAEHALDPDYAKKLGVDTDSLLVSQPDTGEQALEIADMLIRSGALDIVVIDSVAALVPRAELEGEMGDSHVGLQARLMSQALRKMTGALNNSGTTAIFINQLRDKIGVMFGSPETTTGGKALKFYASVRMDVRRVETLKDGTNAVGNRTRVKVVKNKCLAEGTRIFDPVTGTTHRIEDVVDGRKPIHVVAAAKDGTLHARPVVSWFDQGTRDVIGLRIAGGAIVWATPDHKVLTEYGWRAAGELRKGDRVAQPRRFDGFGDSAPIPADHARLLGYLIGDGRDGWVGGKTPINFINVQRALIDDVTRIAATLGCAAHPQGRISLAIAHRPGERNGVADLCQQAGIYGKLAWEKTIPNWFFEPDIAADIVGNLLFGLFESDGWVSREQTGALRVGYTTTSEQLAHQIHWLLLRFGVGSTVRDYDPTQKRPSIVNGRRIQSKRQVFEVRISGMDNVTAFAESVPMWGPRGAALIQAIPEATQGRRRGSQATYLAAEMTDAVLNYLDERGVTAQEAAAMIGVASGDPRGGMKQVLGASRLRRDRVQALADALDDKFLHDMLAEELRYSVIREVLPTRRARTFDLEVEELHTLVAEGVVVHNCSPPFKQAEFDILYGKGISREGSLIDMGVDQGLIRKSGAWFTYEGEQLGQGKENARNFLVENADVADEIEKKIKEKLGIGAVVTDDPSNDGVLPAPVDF

[21] = reduction of Shn3 3'UTR-driven luciferase in osteoblasts – cell-based, Clone20 osteoblasts, firefly luciferase, cherry-picked, dose response (AID 624132); type: functional;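 note: firefly luciferase luminescence from reporter carrying the Shn3 3'UTR in osteoblasts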
[22] = non-specific 3'UTR reporter inhibition in Clone20-Shn3RL – cell-based, Renilla luciferase, cherry-picked, counter-screen for Shn3 inhibitor project, dose response (AID 624133); type: functional

Cc1onc(-c2ccccc2Cl)c1C(=O)NCc1ccccn1
EC50 [1]: > 120 µM (not active) | EC50 [2]: > 120 µM (not active) | EC50 [3]: > 120 µM (not active)

COc1cc2cc(C(c3nnnn3C3CCCCC3)N(C)C3CCCCC3)c(O)nc2cc1OC (centres undefined)
EC50 [1]: 15.7 µM (active) | EC50 [2]: > 120 µM (not active) | EC50 [3]: > 120 µM (not active)

CCOc1cccc2sc(N(CCCN(C)C)C(=O)c3ccc(C(=O)c4ccccc4)cc3)nc12
AC50 [4]: 17.3 µM (active)

CCn1c(NN)nc2sc3c(c2c1=O)CCC3
IC50 [5]: > 50 µM (not active)

C[C@H]1CN([C@@H](C)CO)C(=O)c2cc(NC(=O)Nc3ccc(C(F)(F)F)cc3)ccc2O[C@@H]1CN(C)C(=O)Nc1cccc2ccccc12
AC50 [6]: 1.42 µM (active) | AC50 [7]: 2.41 µM (active) | AC50 [8]: 1.37 µM (active) | AC50 [9]: 1.56 µM (active)

Cc1onc(-c2ccccc2Cl)c1C(=O)Nc1ccc(S(N)(=O)=O)cc1
IC50 [10]: > 100 µM (not active)

CN(C)CCNC(=O)c1ccc(-c2cn3c(-c4ccc(Oc5ccccc5)cc4)cnc3cn2)cc1
AC50 [4]: 5.06 µM (active)

O=C(NNC(=O)c1ccc2ncccc2c1)c1ccc(Cl)cc1
EC50 [1]: > 120 µM (not active) | EC50 [2]: > 120 µM (not active) | EC50 [3]: > 120 µM (not active)

COc1ccc(/N=c2\oc3c(OC)cccc3cc2C(=O)NCc2ccco2)c(OC)c1
CC50 [11]: > 40 µM (active) | IC50 [12]: 40.8 µM (active)

CCCc1ccc(OCC(=O)NNC(=S)NC(=O)c2ccco2)cc1
EC50 [13]: 0.069 µM (active) | EC50 [14]: 1.39 µM (active) | EC50 [15]: 6.68 µM (active)

O=C(NCCCCCCCN1CCCCCCC1)C(C1CCCCC1)C1CCCCC1
AC50 [4]: 8.88 µM (active)

COc1ccc(/C=N/NC(=O)c2cccnc2)cc1COc1ccc([N+](=O)[O-])c(C)c1
EC50 [1]: > 120 µM (not active) | EC50 [2]: 28.9 µM (active) | EC50 [3]: 8.08 µM (active)

Cc1[nH]n(-c2ncc(-c3ccc(Cl)cc3)s2)c(=O)c1C(c1ccc(Cl)cc1)C(C#N)C#N (centres undefined)
AC50 [16]: 2.97 µM (active) | CC50 [11]: > 40 µM (active) | IC50 [12]: 23 µM (active)

Oc1ccc(-c2csc(Nc3ccccn3)n2)c(O)c1
AC50 [16]: 1.74 µM (active) | CC50 [17]: 100 µM (active) | IC50 [18]: 59.5 µM (active)

Cc1ccc(C)c(NC(S)=NCCc2c[nH]cn2)c1
EC50 [15]: 2.66 µM (active)

Cc1cccc(CS(=O)(=O)c2ncc(Cl)c(C(=O)Nc3nnc(C(C)C)s3)n2)c1
AC50 [19]: 1.2 µM (active) | CC50 [11]: 25.6 µM (active) | EC50 [20]: 0.312 µM (active) | IC50 [12]: 94.3 µM (active) | AC50 [21]: 1.62 µM (active) | AC50 [22]: 4.36 µM (active)
